Data set [1] in a line: Physical characteristics of LNPs (particle size, PDI). Format: physicochemical. The settings on record: for PDI DNA / Particle Size (nm) DNA: LNP with Fluc DNA, compound/DOPE/Cholesterol/DMG-PEG2000 38/50/10.0/2.0, Lipid:DNA 45:1 (w/w); for PDI RNA / Particle Size (nm) RNA: LNP with Fluc mRNA, compound/DOPE/Cholesterol/DMG-PEG2000 41.44/45.85/10/2.7, Lipid:RNA 40:1 (w/w). As for the experimental part: LNP compositions of the present disclosure comprising exemplary compounds of Formula (I) were prepared by combining various percentages of an exemplary compound of Formula (I), the phospholipid DOPE, the structural lipid cholesterol (Chol) and 1,2-dimyristoyl-sn-glycerol methoxypolyethylene glycol (DMG-PEG2000; Avanti Polar Lipids, Alabaster, Alabama, USA).
Individual 25 mg/ml stock solutions were prepared by solubilizing the lipids in 200-proof HPLC-grade ethanol and stock solutions were stored at −80° C. until formulated. At the time of formulation, the lipid stock solutions were briefly allowed to equilibrate to room temp and then placed on a hot plate maintained at a temperature range of 50-55° C.
A 1 mg/ml solution of the desired mRNA or DNA to be incorporated into the LNPs was added to 150 mM sodium acetate buffer (pH 5.2) to form a stock solution and kept on ice. The aqueous mRNA or DNA was then added to the lipids as shown in Table 4 or 5 and hand-mixed vigorously with a single channel pipettor.
The resultant mRNA or DNA LNP compositions were then transferred to a Repligen Float-A-Lyzer dialysis device-having a molecular weight cut off (MWCO) of 8-10 kDa (Spectrum Chemical Mfg. Corp, CA, USA) and processed by dialysis against phosphate buffered saline (PBS) (dialysate: dialysis buffer volume at least 1:200 v/v), pH 7.4 overnight at 4° C. (or alternatively room temperature for at least 4 hours), to remove the 25% ethanol and achieve a complete buffer exchange. In some experiments the LNPs were further concentrated by in an Amicon® Ultra-4 centrifugal filter unit, MWCO-30 kDa (Millipore Sigma, USA) spun at ˜4100 x g in an ultracentrifuge. The mRNA and DNA LNPs were then stored at 4° C. until further use.
LNP compositions of the present disclosure comprising mRNA or DNA encoding firefly luciferase (hereafter “Fluc”; TriLink) and COMPOUNDS 5-49 were prepared as described in Example 61 by combining one of COMPOUNDS 5-49, the phospholipid DOPE, the structural lipid cholesterol (Chol) and 1,2-dimyristoyl-sn-glycerol methoxypolyethylene glycol (DMG-PEG2000) in the percentages presented in Tables 6 and 7:
The physical characteristics of the resulting LNPs were analyzed.
A 1 mg/ml solution of the 5′-CleanCap--fLuciferase mRNA (TriLink Biotech) to be incorporated into the LNPs was added to 150 mM sodium acetate buffer (pH 5.2) to form a stock solution and kept on ice. The lipid phase was mixed with the aqueous mRNA phase inside a microfluidic chip using a NanoAssemblr® instrument (Precision Nanosystems, Vancouver, BC, Canada) according to the manufacturer's instructions to form LNP compositions comprising encapsulated mRNAs.
The average particle size diameter of the LNPs was approximately 75-150 nm.

The subject of data set [2] is liver cells. Put plainly: In vivo LNP delivery of firefly luciferase mRNA to liver, bioluminescent imaging (BLI). Also on record: species or system BALB/C mice. The settings on record: adult female BALB/C mice; 0.5 mg/kg fLuciferase mRNA i.v.; LNP as in Example 66; BLI at 4 hr. As for the experimental part:
Adult female BALB/C mice (n=3/group) were intravenously administered 0.5 mg/kg of 5′-CleanCap-fLuciferase mRNA (TriLink Biotech) formulated with LNP compositions as described in Example 66. One group of mice was treated with vehicle (PBS, Thermo Fisher Scientific, USA) as a negative control.
The location and extent of luciferase expression in treated and control mice were determined at 4 hr by bioluminescent imaging (BLI) of anesthetized mice using an IVIS Lumina in vivo imaging system (Perkin Elmer) according to the manufacturer's instructions. Briefly, mice were anesthetized using isoflurane in oxygen, and placed supine on a heated stage. Mice were then administered D-luciferin (Perkin-Elmer #122799) IP, and BLI was performed.
Adult female BALB/C mice (n=3/group) were intravenously administered 0.5 mg/kg of 5′-CleanCap-fLuciferase mRNA (TriLink Biotech) formulated with the LNP compositions shown in Table 25. One group of mice was treated with vehicle (PBS, Thermo Fisher Scientific, USA) as a negative control. […]

Data set [3] is described as follows: Body weight change of mice after LNP administration. Format: in vivo, BALB/C mice. The settings on record: 24 hrs after 0.5 mg/kg LNP encapsulating firefly luciferase mRNA; adult female BALB/C mice. As for the experimental part:
The mice above were also monitored for changes in body weight after LNP delivery. Mice were manually weighed on a scale before LNP dosage and then weighed 24 hrs after administration of 0.5 mg/kg of LNP article encapsulating Cleancap firefly luciferase mRNA. The average of weight change n=3 is reported below.
In addition, the body weight of mice treated with the LNP compositions of Table 25 was assessed prior to intravenous administration and twenty-four hours post-administration and the body weights at baseline and post-treatment were compared. The average percentage of body weight change for each group of mice treated with each LNP composition of Table 25 is shown in Table 28. […]

The results in this text go back to patent US20250099383A1, “COMPOSITIONS AND METHODS FOR DELIVERY OF NUCLEIC ACIDS” (Poseida Therapeutics, Inc., priority 2022, published 2025).

In the case of `CC(C)=CCC/C(C)=C/CCC1=CCC(C(=O)OCCOC(=O)CCN(CCC(=O)OCCOC(=O)C2CC=C(CC/C=C(\C)CCC=C(C)C)CC2)CC(C)N(CCC(=O)OCCOC(=O)C2CC=C(CC/C=C(\C)CCC=C(C)C)CC2)CCC(=O)OCCOC(=O)C2CC=C(CC/C=C(\C)CCC=C(C)C)CC2)CC1` (stereo not drawn) [Compound 8], in data set [1], the “PDI DNA” value is on record as 0.167, the “Particle Size (nm) DNA” value came out at 319.6 nm, the “PDI RNA” value is recorded as 0.073 and the “Particle Size (nm) RNA” value is recorded as 312.8 nm. Moreover, the “Ave flux (p/s) n = 3” value in data set [2] amounted to 1.10E+07 p/s. In addition, the “Ave weight change (gram) n = 3” value in data set [3] is reported as −2.53 gram.
Regarding `CC(C)=CCC/C(C)=C/CCC1=CCC(C(=O)OCCN(C)CCOC(=O)C2CC=C(CC/C=C(\C)CCC=C(C)C)CC2)CC1` (stereo not drawn) [Compound 32], in data set [1], the “PDI DNA” value is given as 0.09, the “Particle Size (nm) DNA” value was 289.2 nm, the “PDI RNA” value came to 0.108 and the “Particle Size (nm) RNA” value worked out at 269.6 nm.
Take `CCN(CCOC(=O)C1CC=C(CC/C=C(\C)CCC=C(C)C)CC1)CCOC(=O)C1CC=C(CC/C=C(\C)CCC=C(C)C)CC1` (stereo not drawn) [Compound 33]: in data set [1], the “PDI DNA” value was 0.087, the “Particle Size (nm) DNA” value worked out at 302 nm, the “PDI RNA” value was found to be 0.079 and the “Particle Size (nm) RNA” value is 332.9 nm.
`CCCCN(CCOC(=O)C1CC=C(CC/C=C(\C)CCC=C(C)C)CC1)CCOC(=O)C1CC=C(CC/C=C(\C)CCC=C(C)C)CC1` (stereo not drawn) [Compound 34]: in data set [1], the “PDI DNA” value is listed as 0.128, the “Particle Size (nm) DNA” value worked out at 290.2 nm, the “PDI RNA” value is 0.127 and the “Particle Size (nm) RNA” value is reported as 386.4 nm.
The like results for `CC(C)=CCC/C(C)=C/CCC1=CCC(C(=O)OCCN(CCOC(=O)C2CC=C(CC/C=C(\C)CCC=C(C)C)CC2)C(C)(C)C)CC1` (stereo not drawn) [Compound 35] were, in that order, 0.129, 298.2 nm, 0.149 and 364.7 nm.
In the case of `CC(C)=CCC/C(C)=C/CCC1=CCC(C(=O)OCCN2CCN(CCOC(=O)C3CC=C(CC/C=C(\C)CCC=C(C)C)CC3)CC2)CC1` (stereo not drawn) [Compound 36], in data set [1], the “PDI DNA” value is 0.091, the “Particle Size (nm) DNA” value is listed as 286.1 nm, the “PDI RNA” value turned out to be 0.09 and the “Particle Size (nm) RNA” value came to 260.6 nm.
The like results for `CC(C)=CCC/C(C)=C/CCC1=CCC(C(=O)OCCOC(=O)CN(C)CC(=O)OCCOC(=O)C2CC=C(CC/C=C(\C)CCC=C(C)C)CC2)CC1` (stereo not drawn) [Compound 37] were, in that order, 0.165, 337.2 nm, 0.091 and 356.2 nm.
The like results for `CC(C)=CCC/C(C)=C/CCC1=CCC(C(=O)OCCN(CCOC(=O)C2CC=C(CC/C=C(\C)CCC=C(C)C)CC2)CCOC(=O)C2CC=C(CC/C=C(\C)CCC=C(C)C)CC2)CC1` (stereo not drawn) [Compound 38] were, in that order, 0.208, 398.8 nm, 0.128 and 359.7 nm.
In the case of `CC(C)=CCC/C(C)=C/CCC1=CCC(C(=O)CCCN(CCO)CCOC(=O)C2CC=C(CC/C=C(\C)CCC=C(C)C)CC2)CC1` (stereo not drawn) [Compound 39], in data set [1], the “PDI DNA” value was 0.138, the “Particle Size (nm) DNA” value came out at 272.5 nm, the “PDI RNA” value worked out at 0.064 and the “Particle Size (nm) RNA” value was determined as 297.1 nm.
On to `CC(C)=CCC/C(C)=C/CCC1=CCC(C(=O)OCCN(C)CCO)CC1` (stereo not drawn) [Compound 40], for which, in data set [1], the “PDI DNA” value worked out at 0.146, the “Particle Size (nm) DNA” value is 251.2 nm, the “PDI RNA” value came to 0.179 and the “Particle Size (nm) RNA” value is reported as 255.5 nm.
Taken in the same sequence, the figures for `CCCCCCCC/C=C\CCCCCCCC(=O)OCCN(C)CCOC(=O)C1CC=C(CC/C=C(\C)CCC=C(C)C)CC1` (stereo not drawn) [Compound 41] were 0.085, 295.1 nm, 0.057 and 306.1 nm.
Taken in the same sequence, the figures for `CC(C)=CCCC1=CCC(C(=O)OCCN(C)CCOC(=O)C2CC=C(CCC=C(C)C)CC2)CC1` (stereo not drawn) [Compound 42] were 0.039, 289.2 nm, 0.121 and 304.2 nm.
Taken in the same sequence, the figures for `CCN(CCOC(=O)C1CC=C(CCC=C(C)C)CC1)CCOC(=O)C1CC=C(CCC=C(C)C)CC1` (stereo not drawn) [Compound 43] were 0.185, 286.7 nm, 0.079 and 310.1 nm.
With `CCCCN(CCOC(=O)C1CC=C(CCC=C(C)C)CC1)CCOC(=O)C1CC=C(CCC=C(C)C)CC1` (stereo not drawn) [Compound 44], in data set [1], the “PDI DNA” value worked out at 0.102, the “Particle Size (nm) DNA” value stood at 270 nm, the “PDI RNA” value was found to be 0.09 and the “Particle Size (nm) RNA” value came to 329 nm.
Taken in the same sequence, the figures for `CC(C)=CCCC1=CCC(C(=O)OCCN(CCOC(=O)C2CC=C(CCC=C(C)C)CC2)C(C)(C)C)CC1` (stereo not drawn) [Compound 45] were 0.082, 340.4 nm, 0.131 and 356.1 nm.
The like results for `CC(C)=CCCC1=CCC(C(=O)OCCN2CCN(CCOC(=O)C3CC=C(CCC=C(C)C)CC3)CC2)CC1` (stereo not drawn) [Compound 46] were, in that order, 0.116, 309 nm, 0.078 and 334.6 nm.
As for `CC(C)=CCCC1=CCC(C(=O)OCCOC(=O)CN(C)CC(=O)OCCOC(=O)C2CC=C(CCC=C(C)C)CC2)CC1` (stereo not drawn) [Compound 47], in data set [1], the “PDI DNA” value is on record as 0.223, the “Particle Size (nm) DNA” value turned out to be 357.6 nm, the “PDI RNA” value was determined as 0.122 and the “Particle Size (nm) RNA” value is 363.7 nm.
Turning to `CC(C)=CCCC1=CCC(C(=O)OCCN(CCOC(=O)C2CC=C(CCC=C(C)C)CC2)CCOC(=O)C2CC=C(CCC=C(C)C)CC2)CC1` (stereo not drawn) [Compound 48], in data set [1], the “PDI DNA” value was 0.202, the “Particle Size (nm) DNA” value was found to be 291.3 nm, the “PDI RNA” value turned out to be 0.088 and the “Particle Size (nm) RNA” value stood at 324.9 nm.
Taken in the same sequence, the figures for `CC(C)=CCCC1=CCC(C(=O)OCCN(CCO)CCOC(=O)C2CC=C(CCC=C(C)C)CC2)CC1` (stereo not drawn) [Compound 49] were 0.104, 308.7 nm, 0.045 and 245.3 nm.
